The source made the active and inactive calls. No cut-off for these calls is given here.
What was measured:
[1] = molecular target: T1, Sodium- and chloride-dependent GABA transporter 1 (Mus musculus, UniProt P31648); test: Inhibition of NO711 binding to mouse GAT1 expressed in HEK cell membranes incubated for 40 mins in presence of NO711 by LC-ESI-MS/MS analysis; set-up: species or system Membrane
[2] = molecular target: T2, Sodium- and chloride-dependent GABA transporter 3 (Homo sapiens, UniProt P48066); test: Inhibition of human GAT3 expressed in COS-7 cells assessed as reduction in [2H6]GABA uptake preincubated for 25 mins followed by [2H6]GABA addition and measured after 6 mins by LC-MS/MS analysis; assay type: cell-based
T2 sequence (P48066 whole entry): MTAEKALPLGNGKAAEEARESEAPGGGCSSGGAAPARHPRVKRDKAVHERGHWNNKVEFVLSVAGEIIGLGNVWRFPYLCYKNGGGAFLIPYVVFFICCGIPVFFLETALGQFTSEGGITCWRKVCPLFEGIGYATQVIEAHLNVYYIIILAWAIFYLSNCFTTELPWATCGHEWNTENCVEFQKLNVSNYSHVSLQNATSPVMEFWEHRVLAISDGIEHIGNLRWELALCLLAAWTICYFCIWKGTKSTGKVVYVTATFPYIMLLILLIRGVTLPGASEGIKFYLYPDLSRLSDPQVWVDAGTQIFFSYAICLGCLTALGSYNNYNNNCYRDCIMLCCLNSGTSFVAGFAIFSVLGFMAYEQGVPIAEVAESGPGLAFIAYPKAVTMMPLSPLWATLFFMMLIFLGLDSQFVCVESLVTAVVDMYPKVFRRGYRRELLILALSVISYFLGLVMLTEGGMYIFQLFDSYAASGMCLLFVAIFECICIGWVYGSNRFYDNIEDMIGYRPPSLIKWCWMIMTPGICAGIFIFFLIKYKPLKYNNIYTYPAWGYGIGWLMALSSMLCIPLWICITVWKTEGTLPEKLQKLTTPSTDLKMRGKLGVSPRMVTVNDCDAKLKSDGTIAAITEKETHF

[3] = molecular target: Sodium- and chloride-dependent GABA transporter 1 (Mus musculus) (UniProt P31648); test: Inhibition of NO711 binding to mouse GAT1 expressed in HEK cell membranes at 100 uM incubated for 40 mins in presence of NO711 by LC-ESI-MS/MS analysis relative to control; conditions: Membrane
Cytochrome P450 3A4 = Cytochrome P450 3A4 (Homo sapiens, UniProt P08684); test: Inhibition of CYP3A4 (unknown origin) at 10 uM; assay type: ADME
Sequence of Cytochrome P450 3A4 (P08684 whole entry): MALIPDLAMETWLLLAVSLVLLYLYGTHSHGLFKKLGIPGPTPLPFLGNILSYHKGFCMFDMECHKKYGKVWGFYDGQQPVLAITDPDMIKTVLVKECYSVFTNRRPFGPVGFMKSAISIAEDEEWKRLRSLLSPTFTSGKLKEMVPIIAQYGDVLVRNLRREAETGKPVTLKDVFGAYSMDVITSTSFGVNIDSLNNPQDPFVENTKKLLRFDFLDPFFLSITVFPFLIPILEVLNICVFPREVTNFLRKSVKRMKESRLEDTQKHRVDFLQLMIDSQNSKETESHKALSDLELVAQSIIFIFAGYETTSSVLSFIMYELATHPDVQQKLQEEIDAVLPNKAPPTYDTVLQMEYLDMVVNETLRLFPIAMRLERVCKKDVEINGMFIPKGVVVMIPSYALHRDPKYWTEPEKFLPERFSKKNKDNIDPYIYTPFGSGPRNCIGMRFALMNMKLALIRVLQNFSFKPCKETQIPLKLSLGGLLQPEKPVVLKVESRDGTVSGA

[4] = molecular target: Cholinesterase (Equus caballus) (UniProt P81908); test: Noncompetitive inhibition of equine serum BuChE assessed as decrease in Vmax with constant Km using varying concentrations of BTC as substrate by Lineweaver-burk and Cornish-Bowden plot analysis
[5] = molecular target: T1, Sodium- and chloride-dependent GABA transporter 1; test: Inhibition of mouse GAT1 expressed in HEK293 cell line assessed as reduction in [3H]GABA uptake incubated for 10 mins; assay type: cell-based
[6] = Neurotoxicity against mouse HT22 cells assessed as cell viability at 30 uM incubated for 24 hrs by MTT assay; assay type: cell-based, HT-22; conditions: ht-22, 24 h, 30 µM
[7] = Hepatotoxicity in human HepG2 cells at 10 uM incubated for 72 hrs by MTS assay; assay type: cell-based; conditions: hepg2, 72 h
[8] = molecular target: Amyloid-beta precursor protein (Homo sapiens) (UniProt P05067); test: Inhibition of HFIP-pretreated amyloid beta (1 to 42) (unknown origin) aggregation at 10 uM after 36 to 48 hrs by thioflavin-T fluorescence assay relative to control; conditions: time 36-48 hrs
Sequence of Amyloid-beta precursor protein (Homo sapiens) (P05067 whole entry): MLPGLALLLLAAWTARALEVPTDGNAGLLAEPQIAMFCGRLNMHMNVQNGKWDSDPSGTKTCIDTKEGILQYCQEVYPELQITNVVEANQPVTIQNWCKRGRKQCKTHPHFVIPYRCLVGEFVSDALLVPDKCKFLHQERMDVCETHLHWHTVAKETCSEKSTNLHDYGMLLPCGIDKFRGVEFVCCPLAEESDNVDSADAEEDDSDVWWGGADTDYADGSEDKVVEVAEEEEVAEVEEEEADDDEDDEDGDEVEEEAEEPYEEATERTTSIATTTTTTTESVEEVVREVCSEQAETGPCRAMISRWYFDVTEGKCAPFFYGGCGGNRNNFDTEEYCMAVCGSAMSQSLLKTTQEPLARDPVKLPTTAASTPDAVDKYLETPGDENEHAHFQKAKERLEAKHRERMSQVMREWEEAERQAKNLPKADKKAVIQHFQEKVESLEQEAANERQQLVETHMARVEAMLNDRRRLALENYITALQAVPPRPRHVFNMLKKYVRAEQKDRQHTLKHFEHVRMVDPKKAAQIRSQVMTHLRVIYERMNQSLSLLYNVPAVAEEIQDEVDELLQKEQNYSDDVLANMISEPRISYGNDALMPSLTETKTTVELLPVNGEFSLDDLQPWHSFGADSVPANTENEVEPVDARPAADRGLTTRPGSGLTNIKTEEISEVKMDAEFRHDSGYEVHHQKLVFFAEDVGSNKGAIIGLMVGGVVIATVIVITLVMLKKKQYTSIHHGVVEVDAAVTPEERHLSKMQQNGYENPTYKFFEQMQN

Cholinesterase [9] = molecular target: Cholinesterase (Equus caballus, UniProt P81908)
Description: Inhibition of equine serum BuChE using butyrylthiocholine as substrate preincubated for 5 mins followed by substrate addition and measured after 5 mins by Ellman's method

Cholinesterase [10] = molecular target: Cholinesterase (Homo sapiens, UniProt P06276)
Sequence of Cholinesterase (Homo sapiens, UniProt P06276) (P06276 whole entry): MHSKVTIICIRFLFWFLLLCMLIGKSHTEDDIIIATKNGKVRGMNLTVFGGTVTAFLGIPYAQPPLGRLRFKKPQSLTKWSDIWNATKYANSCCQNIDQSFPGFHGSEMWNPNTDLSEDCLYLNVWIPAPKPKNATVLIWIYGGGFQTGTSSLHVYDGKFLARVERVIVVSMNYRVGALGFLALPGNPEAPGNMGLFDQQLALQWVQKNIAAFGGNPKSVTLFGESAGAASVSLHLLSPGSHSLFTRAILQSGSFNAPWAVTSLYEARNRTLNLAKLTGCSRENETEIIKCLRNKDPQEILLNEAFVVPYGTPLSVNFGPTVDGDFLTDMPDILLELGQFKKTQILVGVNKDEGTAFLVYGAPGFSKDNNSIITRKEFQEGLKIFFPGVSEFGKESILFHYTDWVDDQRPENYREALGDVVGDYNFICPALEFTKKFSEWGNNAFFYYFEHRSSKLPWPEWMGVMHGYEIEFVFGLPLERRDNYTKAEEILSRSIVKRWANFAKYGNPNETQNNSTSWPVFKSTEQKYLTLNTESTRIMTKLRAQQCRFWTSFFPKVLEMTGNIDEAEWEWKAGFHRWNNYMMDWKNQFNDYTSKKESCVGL
Description: Inhibition of human BuchE using butyrylthiocholine as substrate preincubated for 5 mins followed by substrate addition and measured after 5 mins by Ellman's method

Beta-secretase 1 = Beta-secretase 1 (Homo sapiens, UniProt P56817); conditions: dose 50.0 µM, time 60.0 min
Sequence of Beta-secretase 1 (P56817 whole entry): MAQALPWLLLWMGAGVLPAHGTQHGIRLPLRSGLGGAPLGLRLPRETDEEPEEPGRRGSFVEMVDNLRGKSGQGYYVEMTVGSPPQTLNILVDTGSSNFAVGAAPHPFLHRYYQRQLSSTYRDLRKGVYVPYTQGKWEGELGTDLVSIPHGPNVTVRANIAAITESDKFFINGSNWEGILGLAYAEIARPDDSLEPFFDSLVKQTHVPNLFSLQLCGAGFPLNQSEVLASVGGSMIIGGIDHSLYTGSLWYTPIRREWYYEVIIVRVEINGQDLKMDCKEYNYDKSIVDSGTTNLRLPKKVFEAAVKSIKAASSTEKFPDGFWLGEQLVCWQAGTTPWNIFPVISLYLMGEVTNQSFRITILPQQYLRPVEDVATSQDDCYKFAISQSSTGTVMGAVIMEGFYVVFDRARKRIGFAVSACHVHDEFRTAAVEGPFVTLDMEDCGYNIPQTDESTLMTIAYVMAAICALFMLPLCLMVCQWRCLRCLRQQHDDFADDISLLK

[11] = molecular target: Acetylcholinesterase (Electrophorus electricus) (UniProt O42275); test: Inhibition of electric eel AChE at 10 uM using acetylthiocholine as substrate preincubated for 5 mins followed by substrate addition and measured after 5 mins by Ellman's method relative to control; conditions: time 10.0 min
Sequence of Acetylcholinesterase (Electrophorus electricus) (O42275 24-633 limits assumed): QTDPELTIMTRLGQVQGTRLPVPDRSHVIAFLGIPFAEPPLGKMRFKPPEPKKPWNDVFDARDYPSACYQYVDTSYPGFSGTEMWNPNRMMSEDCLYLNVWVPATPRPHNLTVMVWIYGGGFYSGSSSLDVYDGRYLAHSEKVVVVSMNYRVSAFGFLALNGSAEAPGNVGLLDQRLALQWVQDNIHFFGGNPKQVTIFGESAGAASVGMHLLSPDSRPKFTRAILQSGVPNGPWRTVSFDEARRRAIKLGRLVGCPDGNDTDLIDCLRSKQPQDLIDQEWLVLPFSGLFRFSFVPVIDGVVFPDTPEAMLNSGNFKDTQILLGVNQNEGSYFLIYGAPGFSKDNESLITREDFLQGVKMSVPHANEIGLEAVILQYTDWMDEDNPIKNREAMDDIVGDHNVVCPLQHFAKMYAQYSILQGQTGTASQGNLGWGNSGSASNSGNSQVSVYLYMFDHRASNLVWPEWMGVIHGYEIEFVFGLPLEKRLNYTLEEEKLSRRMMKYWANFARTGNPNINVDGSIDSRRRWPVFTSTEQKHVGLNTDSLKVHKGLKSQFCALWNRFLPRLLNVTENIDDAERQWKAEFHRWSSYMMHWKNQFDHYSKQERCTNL

GABA transporter 4 = molecular target: T3, GABA transporter 4 (Mus musculus, UniProt P31650); test: Inhibition of mouse GAT4 expressed in HEK293 cell line assessed as reduction in [3H]GABA uptake incubated for 10 mins; assay type: cell-based
T3 sequence (P31650 whole entry): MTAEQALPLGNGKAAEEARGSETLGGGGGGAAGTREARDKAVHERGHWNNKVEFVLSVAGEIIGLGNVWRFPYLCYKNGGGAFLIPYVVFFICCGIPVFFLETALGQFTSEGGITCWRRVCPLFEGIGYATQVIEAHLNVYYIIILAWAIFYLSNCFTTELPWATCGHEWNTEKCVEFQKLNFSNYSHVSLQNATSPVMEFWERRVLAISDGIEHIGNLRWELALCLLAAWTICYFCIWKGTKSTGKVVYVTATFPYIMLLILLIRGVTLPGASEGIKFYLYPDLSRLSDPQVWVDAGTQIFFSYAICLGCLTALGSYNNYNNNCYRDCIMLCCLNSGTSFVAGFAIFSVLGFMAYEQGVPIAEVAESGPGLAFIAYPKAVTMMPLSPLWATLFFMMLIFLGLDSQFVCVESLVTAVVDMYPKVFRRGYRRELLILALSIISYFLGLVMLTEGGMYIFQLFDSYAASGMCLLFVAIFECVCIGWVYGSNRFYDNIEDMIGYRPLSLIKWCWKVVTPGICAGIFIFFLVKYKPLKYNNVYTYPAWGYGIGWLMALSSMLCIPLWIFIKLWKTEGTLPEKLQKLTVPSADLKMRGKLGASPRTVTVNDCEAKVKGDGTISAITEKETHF

[12] = Metabolic stability in human liver microsomes assessed as parent compound remaining after 120 mins in presence of NADPH regeneration system by UPLC/MS anlaysis; assay type: ADME, Microsome; conditions: read-out: Stabilty
[13] = Neurotoxicity against mouse HT22 cells assessed as cell viability at 10 uM incubated for 24 hrs by MTT assay; assay type: cell-based, HT-22; conditions: ht-22, 24 h, 10 µM
[14] = Hepatotoxicity in human HepG2 cells at 1 uM incubated for 72 hrs by MTS assay; assay type: cell-based; conditions: hepg2, 72 h
[15] = molecular target: T4, GABA transporter 4 (Mus musculus) (UniProt P31650); test: Inhibition of mouse GAT3 expressed in HEK293 cell line assessed as reduction in [3H]GABA uptake at 100 uM incubated for 10 mins relative to control; assay type: cell-based
T4 sequence (whole entry): T3 sequence (P31650 whole entry)

Cytochrome P450 2D6 = Cytochrome P450 2D6 (Homo sapiens, UniProt P10635); test: Inhibition of CYP2D6 (unknown origin) at 10 uM; assay type: ADME
Sequence of Cytochrome P450 2D6 (P10635 whole entry): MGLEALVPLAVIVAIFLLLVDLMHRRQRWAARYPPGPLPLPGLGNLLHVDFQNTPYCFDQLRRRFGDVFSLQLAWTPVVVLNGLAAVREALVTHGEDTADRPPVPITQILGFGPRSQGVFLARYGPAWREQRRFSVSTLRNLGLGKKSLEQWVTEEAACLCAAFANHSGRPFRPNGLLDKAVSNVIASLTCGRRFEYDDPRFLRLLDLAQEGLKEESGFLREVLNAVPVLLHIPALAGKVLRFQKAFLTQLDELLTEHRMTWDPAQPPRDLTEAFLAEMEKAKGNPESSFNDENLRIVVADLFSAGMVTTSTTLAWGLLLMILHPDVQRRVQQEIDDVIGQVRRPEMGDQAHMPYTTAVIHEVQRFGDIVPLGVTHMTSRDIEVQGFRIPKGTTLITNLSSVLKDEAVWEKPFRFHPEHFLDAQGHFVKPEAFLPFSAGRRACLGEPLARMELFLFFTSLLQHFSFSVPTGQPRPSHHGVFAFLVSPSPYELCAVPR

[16] = Hepatotoxicity in human HepG2 cells at 50 to 100 uM incubated for 72 hrs by MTS assay; assay type: cell-based; conditions: hepg2, 72 h, dose 50-100 µM

| SMILES | IC50 [1] | IC50 [2] | inhibition [3] | inhibition (INH) (Cytochrome P450 3A4) | inhibition [4] | IC50 [5] | Activity [6] | Activity [7] | inhibition [8] | IC50 (Cholinesterase [9]) | IC50 (Cholinesterase [10]) | inhibition (Beta-secretase 1) | inhibition [11] | IC50 (GABA transporter 4) | remaining at 2 h [12] | Activity [13] | Activity [14] | inhibition [15] | inhibition (INH) (Cytochrome P450 2D6) | Activity [16] |
| --- | --- | --- | --- | --- | --- | --- | --- | --- | --- | --- | --- | --- | --- | --- | --- | --- | --- | --- | --- | --- |
| COc1ccc(C(/C=C/CN2CCC[C@H](C(=O)O)C2)(c2ccc(OC)cc2)c2ccc(OC)cc2)cc1 | 46.8 µM | 1.59 µM |  |  |  |  |  |  |  |  |  |  |  |  |  |  |  |  |  |  |
| COc1ccc(C(OCCN2CCC[C@H](C(=O)O)C2)(c2ccc(OC)cc2)c2ccc(OC)cc2C)cc1 |  | 3.16 µM |  |  |  |  |  |  |  |  |  |  |  |  |  |  |  |  |  |  |
| CC(C)(C)CNC[C@@H](O)[C@H](Cc1ccccc1)NC(=O)C(c1ccccc1)c1ccccc1 |  |  | 71% | Active | Active | 25.1 µM | Toxic | Non-Toxic | 20.5% | 0.1 µM | 0.45 µM | 40% | < 10% | 30.9 µM | 79.2% | Non-Toxic | Non-Toxic | 54% | Active | Toxic |

From ChEMBL document CHEMBL4819069, “Discovery of multifunctional anti-Alzheimer's agents with a unique mechanism of action including inhibition of the enzyme butyrylcholinesterase and γ-aminobutyric acid transporters” (Eur J Med Chem, 2021)
